Data: US20100255580A1, “Differentiation of Human Embryonic Stem Cells” (LIFESCCAN, INC., priority 2007, published 2010)

Test system: human embryonic stem cells (H9, H7) on MATRIGEL
Experiment: FACS of CXCR4, DE protocol on […] (feeder-free)
Type: cell-based
Details: for cells expressing CXCR4 (FACS): H9 passage 54, end of the 5th day, 100 ng/ml Activin A +/− 10 ng/ml Wnt3a for 2 days
Experimental: Adhered cells were removed from culture plates by five-minute incubation with TrypLE™ Express solution (Invitrogen, CA). Released cells were resuspended in human embryonic stem cell culture medium and recovered by centrifugation, followed by washing and resuspending the cells in a staining buffer consisting of 2% BSA, 0.05% sodium azide in PBS (Sigma, MO). As appropriate, the cells were Fc-receptor blocked for 15 minutes using a 0.1% γ-globulin (Sigma) solution. […] Controls included appropriate isotype matched antibodies, unstained cells, and cells stained only with secondary conjugated antibody. All incubations with antibodies were performed for 30 mins at 4° C. after which the cells were washed with the staining buffer. Samples that were stained with unconjugated primary antibodies were incubated for an additional 30 mins at 4° C. with secondary conjugated PE or -APC labeled antibodies. See Table I for a list of secondary antibodies used. Washed cells were pelleted and resuspended in the staining buffer, and the cell surface molecules were identified using a FACS Array (BD Biosciences) instrument, collecting at least 10,000 events.
Differentiation of embryonic stem cells to definitive endoderm was carried out as previously described in Nature Biotechnology 23, 1534-1541 (December 2005). […] H9 cells were cultured on plates coated with growth factor reduced […] at a 1:30 to 1:10 dilution or on regular […] at a 1:30 to 1:10 dilution The plates were coated with […] for 1 hr at room temperature.
At day 5, the cultures were analyzed by FACS for CXCR4, E-cadherin, CD9, and N-cadherin expression and by real time PCR for SOX-17, SOX-7, Alpha-fetal protein (AFP), CXCR4, Brychyury (Bry), gooscecoid (GSC), HNF-3 beta, and GATA4. AFP and SOX-7 are regarded as visceral endoderm markers, while GATA4, HNF-3 beta and SOX-17 represent definite endoderm markers, and GSC, Bry, and CXCR4 represent markers of primitive streak. FIG. 17 depicts the expression of CXCR4 by FACS.
Differentiation of embryonic stem cells to definitive endoderm was carried out as previously described in Nature Biotechnology 23, 1534-1541 (December 2005). […] In all subsequent examples unless otherwise noted, this treatment regimen will be referred to as the definite endoderm (DE) protocol. In parallel, H9, H7, or H1 cells cultured on MEF feeders were also exposed to the same DE protocol outlined above.
In some of the cultures 20 ng/ml Wnt-3a (Catalog #1324-WN-002, R&D Systems, MN), 20 ng/ml Wnt-5a (Catalog #654-WN-010, R&D Systems, MN), 25 ng/ml Wnt-7a (Catalog #3008-WN-025, R&D Systems, MN), or 25 ng/ml Wnt-5b (Catalog #3006-WN-025, R&D Systems, MN) was added throughout the five day treatment. FIG. 24 depicts phase contrast images of H9P46 definitive endoderm culture in the presence of high concentration of (a) AA or (b) AA+20 ng/ml Wnt-3a. FIG. 25 depicts the expression of CXCR4 by FACS at day 5 for H7P44, and H9P46 lines cultured on […] (1:30 dilution) and exposed to the DE protocol+Wnt-3a (FIG. 25, panels b and d) and −Wnt-3a (FIG. 25, panels a and c).
Control cultures were not treated with Wnt-3a. FIG. 27, panel a depicts the expression of CXCR4 by FACS at day 5 in the absence of Wnt-3a, b) 10 ng/ml Wnt-3a, c) 20 ng/ml Wnt-3a and d) 50 ng/ml Wnt-3a. In the absence of Wnt-3a the expression of CXCR4 was very low. […] Real-time PCR results (FIG. 28, panel a) also confirm this finding.
In order to confirm that the effect of Wnt-3a was through the Wnt pathway, a GSK-3 inhibitor was used to activate the downstream targets of Wnt, such as beta catenin. […] FIG. 29, panel a depicts the expression of CXCR4 by FACS at day 5 in the absence of Wnt-3a or GSK-3B inhibitor, b) +20 ng/ml Wnt-3a, c) +1000 nM GSK-3B inhibitor IX, d) +500 nM GSK-3B inhibitor IX, e) +100 nM GSK-3B inhibitor IX, f) +10 nM GSK-3B inhibitor IX, g) +100 nM GSK-3B inhibitor IX for days 1-2, and h) +10 nM GSK-3B inhibitor IX for days 1-2. […]

[1] = H9P46-P48, 20 ng/ml Wnt-3a or 100-1000 nM GSK-3B inhibitor, day 5

Row | Compound | number of CXCR4 positive cells [1] | expression of CXCR4 (FACS) (H9P46-P48, 10 nm GSK-3B inhibitor, day 5) | cells expressing CXCR4 (FACS) [%] | expression of CXCR4 (CD184) by FACS (H7P44 and H9P46, day 5, DE protocol + 20 ng/ml Wnt-3a vs low serum plus AA) | number of CXCR4 positive cells (H9P46, 10-50 ng/ml Wnt-3a with 100 ng/ml AA, day 5)
1 | O=C1Nc2cc(Br)ccc2/C1=C1/Nc2ccccc2/C1=N\O [GSK-3B inhibitor IX, reference compound] | significantly increased | very low | – | – | –
2 | Activin A: a member of the TGFβ superfamily; R&D Systems; Group 2 = Activin A (100 ng/ml) | – | – | 1 | – | –
3 | Wnt-3a | significantly increased | – | 73 | robust expression | significantly increased
